These results are taken from BindingDB's records for doi:10.1016/j.bmcl.2012.12.050 (Actelion Pharmaceuticals, 2013).

The nature of this experiment: Antagonist activity against CRTh2 receptor in human eosinophils assessed as cell shape change.

As usually defined, the IC50 is the point on the concentration scale where inhibition reaches its midpoint.

`N#C/C(=C\c1cn(CC(=O)O)c2ccccc12)C(=O)N1CCCc2ccccc21`: the IC50 is 160 nM.
